# Literature values as cited in patent publication US20230330042A1, “FORMULATION FOR ORAL ADMINISTRATION” (NIPPON ZOKI PHARMACEUTICAL CO., LTD., priority 2020, published 2023).
# Read-outs that look alike come from different tables or passages of the source.
# Legend:
# [1] = target: δ-opioid receptor (Homo sapiens, UniProt P41143); settings: read-out: Ki δ; Mean value (n = 2-3)
# [2] = target: μ-opioid receptor (Homo sapiens, UniProt P35372); settings: read-out: Ki μ; Mean value (n = 2-3)
# [3] = target: Noradrenaline reuptake (Homo sapiens, UniProt P23975)
# Noradrenaline reuptake, sequence (P23975 whole entry): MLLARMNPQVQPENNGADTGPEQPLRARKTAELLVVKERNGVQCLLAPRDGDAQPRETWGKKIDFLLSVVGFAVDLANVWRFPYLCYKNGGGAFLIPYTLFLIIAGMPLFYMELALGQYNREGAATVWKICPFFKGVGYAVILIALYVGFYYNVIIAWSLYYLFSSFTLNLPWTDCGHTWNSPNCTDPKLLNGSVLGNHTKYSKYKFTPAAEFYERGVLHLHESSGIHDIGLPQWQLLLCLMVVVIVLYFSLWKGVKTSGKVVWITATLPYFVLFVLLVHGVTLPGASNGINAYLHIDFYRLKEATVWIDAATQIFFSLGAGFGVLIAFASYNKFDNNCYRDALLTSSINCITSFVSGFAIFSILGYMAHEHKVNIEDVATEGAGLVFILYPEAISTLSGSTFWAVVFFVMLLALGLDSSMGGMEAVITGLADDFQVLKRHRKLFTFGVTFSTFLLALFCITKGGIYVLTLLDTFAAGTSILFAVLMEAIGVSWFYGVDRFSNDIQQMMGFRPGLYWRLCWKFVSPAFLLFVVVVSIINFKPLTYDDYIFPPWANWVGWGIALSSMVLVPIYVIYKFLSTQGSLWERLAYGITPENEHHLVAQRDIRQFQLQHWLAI
# [4] = target: κ-opioid receptor (Homo sapiens, UniProt P41145); settings: read-out: Ki κ
# κ-opioid receptor, sequence (P41145 whole entry): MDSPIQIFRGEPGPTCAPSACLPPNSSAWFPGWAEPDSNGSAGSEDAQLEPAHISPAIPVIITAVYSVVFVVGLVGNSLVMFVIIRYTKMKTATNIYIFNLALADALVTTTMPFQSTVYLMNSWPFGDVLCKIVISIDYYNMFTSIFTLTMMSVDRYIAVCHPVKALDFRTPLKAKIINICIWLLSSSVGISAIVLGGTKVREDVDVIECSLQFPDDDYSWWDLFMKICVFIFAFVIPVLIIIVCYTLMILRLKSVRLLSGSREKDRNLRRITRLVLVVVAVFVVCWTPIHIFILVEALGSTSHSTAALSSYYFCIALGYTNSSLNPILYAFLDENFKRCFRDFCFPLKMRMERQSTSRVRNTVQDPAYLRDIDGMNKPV
# [5] = in vivo
# [6] = target: Serotonin reuptake (Homo sapiens, UniProt P31645); settings: read-out: Ki Serotonin
# Serotonin reuptake, sequence (P31645 whole entry): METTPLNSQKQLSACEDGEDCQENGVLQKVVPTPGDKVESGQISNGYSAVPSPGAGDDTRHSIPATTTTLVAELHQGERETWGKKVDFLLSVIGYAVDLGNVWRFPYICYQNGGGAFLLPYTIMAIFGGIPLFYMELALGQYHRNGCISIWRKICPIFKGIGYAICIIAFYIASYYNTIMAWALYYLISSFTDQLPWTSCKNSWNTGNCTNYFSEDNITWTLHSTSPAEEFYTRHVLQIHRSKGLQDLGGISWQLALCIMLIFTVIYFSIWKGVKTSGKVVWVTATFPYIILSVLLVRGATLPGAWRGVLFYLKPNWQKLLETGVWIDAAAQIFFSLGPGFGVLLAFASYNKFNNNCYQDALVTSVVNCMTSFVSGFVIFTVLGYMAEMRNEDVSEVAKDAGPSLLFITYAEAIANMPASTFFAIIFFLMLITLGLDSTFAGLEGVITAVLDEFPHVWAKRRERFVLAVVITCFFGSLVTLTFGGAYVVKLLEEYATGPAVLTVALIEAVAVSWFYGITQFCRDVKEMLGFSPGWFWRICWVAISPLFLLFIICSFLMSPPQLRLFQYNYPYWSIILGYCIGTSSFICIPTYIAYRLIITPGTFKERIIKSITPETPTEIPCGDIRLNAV
# [7] = Mean value (n = 2-3); NA: no activity at 10 μmol/L; read-out: Ki Noradrenaline
# [8] = read-out: Ki Noradrenaline; Mean value (n = 2-3); NA: no activity at 10 μmol/L
# δ-opioid receptor, sequence (P41143 whole entry): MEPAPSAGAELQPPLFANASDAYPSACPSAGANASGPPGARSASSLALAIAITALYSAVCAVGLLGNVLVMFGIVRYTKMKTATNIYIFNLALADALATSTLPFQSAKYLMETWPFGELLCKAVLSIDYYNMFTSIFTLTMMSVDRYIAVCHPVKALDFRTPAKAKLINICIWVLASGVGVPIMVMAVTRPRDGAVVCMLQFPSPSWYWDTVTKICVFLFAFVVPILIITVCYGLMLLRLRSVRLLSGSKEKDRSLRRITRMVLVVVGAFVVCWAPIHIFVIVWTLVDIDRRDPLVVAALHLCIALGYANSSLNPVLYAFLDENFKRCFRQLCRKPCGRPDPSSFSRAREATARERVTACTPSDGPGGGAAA
# μ-opioid receptor, sequence (P35372 whole entry, species assumed): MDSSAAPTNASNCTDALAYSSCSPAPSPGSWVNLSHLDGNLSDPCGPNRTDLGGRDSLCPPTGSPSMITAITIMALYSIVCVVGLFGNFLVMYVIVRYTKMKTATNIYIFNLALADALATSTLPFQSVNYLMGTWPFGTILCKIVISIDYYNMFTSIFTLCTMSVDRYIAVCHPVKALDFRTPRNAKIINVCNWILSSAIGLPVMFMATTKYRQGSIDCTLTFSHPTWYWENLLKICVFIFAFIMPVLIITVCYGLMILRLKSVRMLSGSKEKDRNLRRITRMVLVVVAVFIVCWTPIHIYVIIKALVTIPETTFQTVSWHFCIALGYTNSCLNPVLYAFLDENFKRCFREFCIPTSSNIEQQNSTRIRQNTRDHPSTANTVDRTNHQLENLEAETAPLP
Structure (SMILES),Ki [1] [µM],"Ki [3, 7] [µM]",Ki ([4]; Mean value (n = 2-3)) [µM],Ki [4] [µM],other results
CN(C)CCCN1c2ccccc2CCc2ccccc21 [Imipramine],12.7,–,–,–,Ki [2]: 3.73 µM
"CN(C)CC1CCCCC1(O)c1cccc(O)c1 (single isomer, unassigned; (-)) [(−)-M1]",30.5,0.857,32.9,–,–
"CN(C)CC1CCCCC1(O)c1cccc(O)c1 (single isomer, unassigned; (+)) [(+)-M1]",0.594,14.4,0.706,–,–
"CN(C)CC1CCCCC1(O)c1cccc(O)c1 (racemic) [(±)-M1, O-desmethyltramadol]",–,1.52,0.242,–,half-life ([5]; po): 6 to 7 h
"COc1cccc(C2(O)CCCCC2CN(C)C)c1 (single isomer, unassigned; (-)) [(−)-Tramadol, (−)-tramadol]",213,0.432,–,53.5,–
"COc1cccc(C2(O)CCCCC2CN(C)C)c1 (single isomer, unassigned; (+)) [(+)-Tramadol, (+)-tramadol]",6.24,2.51,–,54,–
COc1ccc2c3c1O[C@H]1[C@@H](O)C=C[C@H]4[C@@H](C2)N(C)CC[C@@]341 [Codeine],–,–,–,–,"Ki [3, 8]: > 10 µM; Ki [6]: > 10 µM"
"COc1cccc([C@@]2(O)CCCC[C@@H]2CN(C)C)c1 (racemic) [(±)-Tramadol, (1RS,2RS)-2-[(dimethylamino)methyl]-1-(3-methoxyphenyl)cyclohexanol]",57.7,–,–,42.7,"Ki [3, 8]: 0.785 µM; unchanged tramadol and metabolites excreted through the kidney [5]: about 90%; half-life ([5]; po): 5 to 6 h; time after administration at which the maximum drug concentration is reached ([5]; po): 1.6 to 1.9 h; time at which the maximum concentration in the brain is reached ([5]; po): 10 min"
